Experimental data as given in PubChem BioAssay AID256 (DTP/NCI, 2004).
Where “and” joins values, the source holds several entries; their conditions need not be identical. Equal values may be shown once. Inconclusive results and toxic doses are left out. How the source made its calls: active means survival T/C of 150% or more; inactive means T/C below 125% in these data.

Test system: CD2F1 mice, L1210 leukemia ip, survival T/C
Assay: NCI In Vivo Anticancer Drug Screen. Data for tumor model L1210 Leukemia (intraperitoneal) in CD2F1 (CDF1) mice
Settings: endpoint: mean survival time, higher = longer survival
In short: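 Transplantable tumor in mice; compound-treated vs vehicle-treated groups. Read-out = treated/control ratio of the measured endpoint.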

[1] = dose: 100.0 mg/kg/injection, schedule: Q01DX009 (ip), vehicle: saline
[2] = dose: 200.0 mg/kg/injection, schedule: Q01DX009 (ip), vehicle: saline
[3] = dose: 100.0 mg/kg/injection, schedule: Q04DX002 (ip), vehicle: saline with Tween-80
[4] = dose: 200.0 mg/kg/injection, schedule: Q04DX002 (ip), vehicle: saline with Tween-80
[5] = dose: 400.0 mg/kg/injection, schedule: Q04DX002 (ip), vehicle: saline with Tween-80

Measured: T/C

O=P(CCCCl)(OCCCCl)OCCCCl
inactive: [1] 100 % of control | [2] 101 % of control | dose: 400.0 mg/kg/injection, schedule: Q01DX009 (ip), vehicle: saline 100 % of control

O=[N+]([O-])c1ccc(/C=C/C=C/C2(CCl)OCCO2)cc1
inactive: dose: 100.0 mg/kg/injection, schedule: Q01DX001 (ip), vehicle: Klucel (hydroxypropylcellulose) (HPC) 100 % of control | dose: 200.0 mg/kg/injection, schedule: Q01DX001 (ip), vehicle: Klucel (hydroxypropylcellulose) (HPC) 112 % of control | dose: 400.0 mg/kg/injection, schedule: Q01DX001 (ip), vehicle: Klucel (hydroxypropylcellulose) (HPC) 100 % of control

CNC(=O)/C=C/C1=CN2C(=O)c3ccc(C)c(O)c3NC(OC)C2C1 (centres undefined)
inactive: dose: 0.01 mg/kg/injection, schedule: Q01DX009 (ip), vehicle: saline 105 % of control and 108 % of control | dose: 0.02 mg/kg/injection, schedule: Q01DX009 (ip), vehicle: saline 95 % of control | dose: 0.03 mg/kg/injection, schedule: Q01DX009 (ip), vehicle: saline 112 % of control | dose: 0.05 mg/kg/injection, schedule: Q01DX009 (ip), vehicle: saline 100 % of control and 106 % of control and 108 % of control | dose: 0.1 mg/kg/injection, schedule: Q01DX009 (ip), vehicle: saline 115 % of control and 102 % of control and 106 % of control | dose: 0.2 mg/kg/injection, schedule: Q01DX009 (ip), vehicle: saline 115 % of control and 100 % of control | dose: 0.4 mg/kg/injection, schedule: Q01DX009 (ip), vehicle: saline 112 % of control

CC1=CC(=O)C(CCC#N)C(C)(C)C1 (centres undefined)
inactive: [3] 91 % of control

O=c1ccnc(C(F)(F)F)[nH]1
inactive: [1] 101 % of control | [2] 95 % of control

Oc1ccccc1-c1nnc(-c2ccccc2)o1
inactive: dose: 50.0 mg/kg/injection, schedule: Q04DX002 (ip), vehicle: saline with Tween-80 91 % of control | [3] 87 % of control | [4] 95 % of control | [5] 87 % of control

COc1ccc(NC(=O)Nc2ccc(OC)cc2Cl)cc1
inactive: [3] 90 % of control | [4] 86 % of control | [5] 90 % of control

CN(C)C/C(=N\OC(=O)c1ccccc1)c1ccc(Cl)cc1
inactive: dose: 50.0 mg/kg/injection, schedule: Q01DX009 (ip), vehicle: saline with Tween-80 107 % of control | dose: 100.0 mg/kg/injection, schedule: Q01DX001 (ip), vehicle: saline with Tween-80 96 % of control | dose: 100.0 mg/kg/injection, schedule: Q01DX009 (ip), vehicle: saline with Tween-80 96 % of control | dose: 200.0 mg/kg/injection, schedule: Q01DX001 (ip), vehicle: saline with Tween-80 104 % of control | dose: 200.0 mg/kg/injection, schedule: Q01DX009 (ip), vehicle: saline with Tween-80 96 % of control | dose: 400.0 mg/kg/injection, schedule: Q01DX001 (ip), vehicle: saline with Tween-80 93 % of control

N.N.O=C([O-])/C=C\C(=O)[O-].[Pt]
inactive: dose: 2.5 mg/kg/injection, schedule: Q04DX003 (ip), vehicle: distilled water + Tween-80 112 % of control | dose: 5.0 mg/kg/injection, schedule: Q04DX003 (ip), vehicle: distilled water + Tween-80 116 % of control | dose: 10.0 mg/kg/injection, schedule: Q04DX003 (ip), vehicle: distilled water + Tween-80 113 % of control | dose: 10.0 mg/kg/injection, schedule: Q04DX003 (ip), vehicle: water 105 % of control | dose: 20.0 mg/kg/injection, schedule: Q04DX003 (ip), vehicle: distilled water + Tween-80 118 % of control | dose: 20.0 mg/kg/injection, schedule: Q04DX003 (ip), vehicle: water 113 % of control | dose: 40.0 mg/kg/injection, schedule: Q04DX003 (ip), vehicle: water 118 % of control

CCCCS(=O)(=O)F
inactive: dose: 25.0 mg/kg/injection, schedule: Q04DX002 (ip), vehicle: saline 96 % of control | dose: 50.0 mg/kg/injection, schedule: Q04DX002 (ip), vehicle: saline 101 % of control

CS(=O)(=O)OCCCCOS(C)(=O)=O
inactive: dose: 3.75 mg/kg/injection, schedule: Q01DX009 (ip), vehicle: saline with Tween-80 92 % of control | dose: 3.75 mg/kg/injection, schedule: Q03HX008 (ip), vehicle: saline with Tween-80 96 % of control | dose: 3.75 mg/kg/injection, schedule: Q03HX016 (ip), vehicle: saline with Tween-80 94 % of control | dose: 3.75 mg/kg/injection, schedule: Q03HX024 (ip), vehicle: saline with Tween-80 104 % of control | dose: 7.5 mg/kg/injection, schedule: Q01DX009 (ip), vehicle: saline with Tween-80 102 % of control | dose: 7.5 mg/kg/injection, schedule: Q03HX008 (ip), vehicle: saline with Tween-80 100 % of control | dose: 7.5 mg/kg/injection, schedule: Q03HX016 (ip), vehicle: saline with Tween-80 98 % of control | dose: 7.5 mg/kg/injection, schedule: Q03HX024 (ip), vehicle: saline with Tween-80 106 % of control | dose: 12.5 mg/kg/injection, schedule: Q01DX001 (ip), vehicle: saline 98 % of control | dose: 15.0 mg/kg/injection, schedule: Q01DX009 (ip), vehicle: saline with Tween-80 97 % of control | dose: 15.0 mg/kg/injection, schedule: Q01DX009 (oral), vehicle: saline with Tween-80 97 % of control | dose: 15.0 mg/kg/injection, schedule: Q03HX008 (ip), vehicle: saline with Tween-80 102 % of control | dose: 15.0 mg/kg/injection, schedule: Q03HX016 (ip), vehicle: saline with Tween-80 98 % of control | dose: 15.0 mg/kg/injection, schedule: Q03HX024 (ip), vehicle: saline with Tween-80 103 % of control | dose: 25.0 mg/kg/injection, schedule: Q01DX001 (ip), vehicle: saline 102 % of control | dose: 30.0 mg/kg/injection, schedule: Q01DX001 (ip), vehicle: saline with Tween-80 98 % of control | dose: 30.0 mg/kg/injection, schedule: Q01DX009 (ip), vehicle: saline with Tween-80 100 % of control | dose: 30.0 mg/kg/injection, schedule: Q01DX009 (oral), vehicle: saline with Tween-80 94 % of control | dose: 30.0 mg/kg/injection, schedule: Q03HX008 (ip), vehicle: saline with Tween-80 107 % of control | dose: 30.0 mg/kg/injection, schedule: Q03HX016 (ip), vehicle: saline with Tween-80 98 % of control | dose: 30.0 mg/kg/injection, schedule: Q03HX024 (ip), vehicle: saline with Tween-80 107 % of control | dose: 30.0 mg/kg/injection, schedule: Q04DX003 (ip), vehicle: saline with Tween-80 101 % of control | dose: 30.0 mg/kg/injection, schedule: Q08DX002 (ip), vehicle: saline with Tween-80 98 % of control | dose: 50.0 mg/kg/injection, schedule: Q01DX001 (ip), vehicle: saline 101 % of control | dose: 60.0 mg/kg/injection, schedule: Q01DX001 (ip), vehicle: saline with Tween-80 104 % of control | dose: 60.0 mg/kg/injection, schedule: Q01DX001 (oral), vehicle: saline with Tween-80 100 % of control | dose: 60.0 mg/kg/injection, schedule: Q04DX003 (ip), vehicle: saline with Tween-80 96 % of control | dose: 60.0 mg/kg/injection, schedule: Q08DX002 (ip), vehicle: saline with Tween-80 98 % of control | dose: 100.0 mg/kg/injection, schedule: Q01DX001 (ip), vehicle: saline 112 % of control | dose: 120.0 mg/kg/injection, schedule: Q01DX001 (ip), vehicle: saline with Tween-80 104 % of control | dose: 120.0 mg/kg/injection, schedule: Q08DX002 (ip), vehicle: saline with Tween-80 97 % of control | dose: 240.0 mg/kg/injection, schedule: Q08DX002 (ip), vehicle: saline with Tween-80 100 % of control

CC(C)(O)CCNc1ncnc2c1ncn2C1OC(CO)C(O)C1O (centres undefined)
inactive: dose: 12.5 mg/kg/injection, schedule: Q01DX005 (ip), vehicle: water 101 % of control | dose: 25.0 mg/kg/injection, schedule: Q01DX005 (ip), vehicle: water 95 % of control and 103 % of control | dose: 50.0 mg/kg/injection, schedule: Q01DX005 (ip), vehicle: water 124 % of control and 103 % of control | dose: 100.0 mg/kg/injection, schedule: Q01DX005 (ip), vehicle: water 108 % of control
